Results: PubChem BioAssay (NCI)
Where “and” joins values, the source holds several entries; their conditions need not be identical. Equal values may be shown once.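 Each compound was tested at five concentrations against cells in 96-well plates for 48 hours. GI50 is the concentration that inhibits growth by half. TGI is the concentration that stops growth completely.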 Where a SMILES comes first, the peptide text is derived from it. Side-chain parts run from the residue outwards. The star is where a group is joined. Cbz = O=C(OCc1ccccc1)*; Boc = CC(C)(C)OC(=O)*

How the values were obtained:
Experiment in all cases: NCI tumour cell line growth inhibition, 48 h
[1] = tested on: HT29 colon
[2] = tested on: ACHN renal
[3] = tested on: SN12C renal
[4] = tested on: UO-31 renal
[5] = tested on: M14 melanoma
[6] = tested on: SR leukemia
[7] = tested on: RPMI-8226 leukemia
[8] = tested on: MOLT-4 leukemia
[9] = tested on: HCC-2998 colon
[10] = tested on: PC-3 prostate
[11] = tested on: A549 NSCLC
[12] = tested on: BT-549 breast
[13] = tested on: OVCAR-3 ovarian
[14] = tested on: OVCAR-8 ovarian
[15] = tested on: 786-0 renal
[16] = tested on: TK-10 renal
[17] = tested on: HCT-15 colon
[18] = tested on: SK-MEL-2 melanoma
[19] = tested on: NCI-H226 lung
[20] = tested on: HOP-62 NSCLC
[21] = tested on: DU-145 prostate
[22] = tested on: LOX IMVI melanoma
[23] = tested on: NCI-H23 lung
[24] = tested on: UACC-62 melanoma
[25] = tested on: K-562 leukemia
[26] = tested on: HCT-116 colon
[27] = tested on: OVCAR-4 ovarian
[28] = tested on: SW-620 colon
[29] = tested on: MCF7 breast
[30] = tested on: SNB-75 CNS
[31] = tested on: MALME-3M melanoma
[32] = tested on: CAKI-1 renal
[33] = tested on: OVCAR-5 ovarian
[34] = tested on: MDA-N
[35] = tested on: NCI-H460 lung
[36] = tested on: MDA-MB-231 breast
[37] = tested on: SK-MEL-5 melanoma
[38] = tested on: UACC-257 melanoma
[39] = tested on: CCRF-CEM leukemia
[40] = tested on: SNB-19 CNS
[41] = tested on: U251 CNS
[42] = tested on: T-47D breast
[43] = tested on: HL-60(TB) leukemia
[44] = tested on: A498 renal
[45] = tested on: MDA-MB-435
[46] = tested on: NCI-H522 lung
[47] = tested on: IGROV1 ovarian
[48] = tested on: SK-MEL-28 melanoma
[49] = tested on: SF-268 CNS
[50] = tested on: HS 578T breast
[51] = tested on: SF-295 CNS
[52] = tested on: EKVX NSCLC
[53] = tested on: HOP-92 NSCLC
[54] = tested on: RXF 393 renal
[55] = tested on: NCI/ADR-RES ovarian
[56] = tested on: COLO 205 colon
[57] = tested on: KM12 colon
[58] = tested on: SK-OV-3 ovarian
[59] = tested on: SF-539 CNS

CC(C)CC(NC(=O)OCc1ccccc1)C(=O)NCCCCC(NC(=O)C(CCCCNC(=O)C(CC(C)C)NC(=O)OCc1ccccc1)NC(=O)C(CCCCNC(=O)C(CC(C)C)NC(=O)OCc1ccccc1)NC(=O)C(CCCCNC(=O)C(CC(C)C)NC(=O)OCc1ccccc1)NC(=O)OC(C)(C)C)C(=O)O (stereo not drawn) (Boc-K([Leu-Cbz])K([Leu-Cbz])K([Leu-Cbz])K([Leu-Cbz])-OH; configuration not given here)
TGI [1]: > 25 µM | TGI [2]: > 25 µM | TGI [3]: > 25 µM | TGI [4]: > 25 µM | TGI [5]: > 25 µM | TGI [6]: > 25 µM | TGI [7]: > 25 µM | TGI [8]: > 25 µM | TGI [9]: > 25 µM | TGI [10]: > 25 µM | TGI [11]: > 25 µM | TGI [12]: > 25 µM | TGI [13]: > 25 µM | TGI [14]: > 25 µM | TGI [15]: > 25 µM | TGI [16]: > 25 µM | TGI [17]: > 25 µM | TGI [18]: > 25 µM | TGI [19]: > 25 µM | TGI [20]: > 25 µM | TGI [21]: > 25 µM | TGI [22]: > 25 µM | TGI [23]: > 25 µM | TGI [24]: > 25 µM | TGI [25]: > 25 µM | TGI [26]: > 25 µM | TGI [27]: > 25 µM | TGI [28]: > 25 µM | TGI [29]: > 25 µM | TGI [30]: > 25 µM | TGI [31]: > 25 µM | TGI [32]: > 25 µM | TGI [33]: > 25 µM | TGI [34]: > 25 µM | TGI [35]: > 25 µM | TGI [36]: > 25 µM | TGI [37]: > 25 µM | TGI [38]: > 25 µM | TGI [39]: > 25 µM | TGI [40]: > 25 µM | TGI [41]: > 25 µM | TGI [42]: > 25 µM | TGI [43]: > 25 µM | TGI [44]: > 25 µM | TGI [45]: > 25 µM | TGI [46]: > 25 µM | TGI [47]: > 25 µM | TGI [48]: > 25 µM | TGI [49]: > 25 µM

O=c1[nH]cc(F)c(=O)[nH]1
GI50 [6]: 1.26 µM and 0.514 µM | TGI [6]: > 100 µM and > 33.4 µM and 609 µM | GI50 [8]: 6.25 µM and 0.871 µM | TGI [10]: > 100 µM and 2250 µM and > 2500 µM | GI50 [12]: 7.32 µM and 6.94 µM and 27.1 µM | TGI [12]: > 100 µM and 2090 µM and > 1390 µM | GI50 [50]: > 100 µM and 14.3 µM | TGI [50]: > 100 µM and 2250 µM and > 1170 µM | TGI [18]: > 100 µM and 2190 µM and > 2500 µM | GI50 [51]: 6.45 µM and 0.721 µM | GI50 [19]: 23.9 µM and 59.6 µM and 186 µM | TGI [19]: > 100 µM and 2170 µM and > 2500 µM | TGI [21]: > 100 µM and 2160 µM and > 2500 µM | TGI [52]: > 100 µM and 2250 µM and > 2500 µM | GI50 [25]: 4.75 µM and 12 µM | TGI [25]: 2190 µM and > 1830 µM | TGI [28]: > 100 µM and 2440 µM and > 2360 µM | TGI [30]: > 100 µM and 1990 µM and 2430 µM | TGI [53]: > 100 µM and 2040 µM and > 2500 µM | TGI [34]: 2390 µM and > 2500 µM | GI50 [54]: 25.9 µM and 2.91 µM and 23.8 µM | GI50 [39]: 9.86 µM and 8.53 µM | TGI [39]: 1990 µM and > 1040 µM | GI50 [42]: 7.97 µM and 9.73 µM and 17.6 µM | TGI [43]: > 100 µM and 1560 µM and 298 µM | GI50 [44]: 4.81 µM and 5.2 µM | GI50 [46]: 11 µM and 11.5 µM and 82.9 µM | GI50 [47]: 6.13 µM and 2.37 µM and 20.6 µM | GI50 [48]: 5.99 µM and 1.5 µM | TGI [49]: > 100 µM and 2280 µM and > 2500 µM

CN(C)Cc1cc(C(=O)/C=C/c2c(F)cccc2Cl)cc(CN(C)C)c1O
TGI [1]: 23.7 µM | TGI [2]: 15.4 µM | TGI [3]: 17.2 µM | TGI [4]: 18.7 µM | TGI [5]: 30 µM | TGI [7]: 49.6 µM | TGI [8]: 66.1 µM | TGI [9]: 27 µM | TGI [10]: 29.5 µM | TGI [11]: 32.5 µM | TGI [12]: 21.8 µM | TGI [13]: 24.6 µM | TGI [14]: 41.2 µM | TGI [50]: 50.2 µM | TGI [15]: 19.5 µM | TGI [16]: 15.7 µM | TGI [17]: 19.1 µM | TGI [18]: 35.5 µM | TGI [51]: 25.4 µM | TGI [19]: 30.8 µM | TGI [20]: 26.7 µM | TGI [21]: 21.3 µM | TGI [22]: 18.5 µM | TGI [52]: 28.7 µM | TGI [23]: 38.3 µM | TGI [24]: 26.1 µM | TGI [25]: 26.8 µM | TGI [26]: 16.2 µM | TGI [27]: 31 µM | TGI [28]: 31.3 µM | TGI [29]: 20.2 µM | TGI [30]: 21.8 µM | TGI [31]: 25.7 µM | TGI [53]: 20.3 µM | TGI [32]: 25.3 µM | TGI [33]: 36.2 µM | TGI [34]: 29.1 µM | TGI [55]: 75.7 µM | TGI [35]: 11.8 µM | TGI [36]: 27.5 µM | TGI [37]: 29.2 µM | TGI [56]: 24.8 µM | TGI [54]: 12.6 µM | TGI [38]: 24.6 µM | TGI [39]: 24.1 µM | TGI [40]: 61.5 µM | TGI [57]: 30.4 µM | TGI [41]: 28.9 µM | TGI [58]: 28.3 µM | TGI [42]: 33.4 µM | TGI [43]: 8.49 µM | TGI [44]: 21 µM | TGI [45]: 38.2 µM | TGI [47]: 19 µM | TGI [48]: 31.9 µM | TGI [49]: 23.5 µM

CC(=O)C1C(=O)C(=O)N(c2ccc([N+](=O)[O-])cc2Cl)C1=O (stereo not drawn)
TGI [1]: > 100 µM | TGI [2]: > 100 µM | TGI [3]: > 100 µM | TGI [4]: > 100 µM | TGI [5]: > 100 µM | TGI [59]: > 100 µM | TGI [8]: > 100 µM | TGI [9]: > 100 µM | TGI [10]: > 100 µM | TGI [11]: > 100 µM | TGI [12]: > 100 µM | TGI [13]: > 100 µM | TGI [14]: > 100 µM | TGI [50]: > 100 µM | TGI [15]: > 100 µM | TGI [16]: > 100 µM | TGI [17]: > 100 µM | TGI [18]: > 100 µM | TGI [51]: > 100 µM | TGI [19]: > 100 µM | TGI [20]: > 100 µM | TGI [21]: > 100 µM | TGI [22]: > 100 µM | TGI [52]: > 100 µM | TGI [23]: > 100 µM | TGI [24]: > 100 µM | TGI [26]: > 100 µM | TGI [27]: > 100 µM | TGI [28]: > 100 µM | TGI [29]: > 100 µM | TGI [30]: > 100 µM | TGI [53]: > 100 µM | TGI [32]: > 100 µM | TGI [33]: > 100 µM | TGI [34]: > 100 µM | TGI [55]: > 100 µM | TGI [35]: > 100 µM | TGI [36]: > 100 µM | TGI [37]: > 100 µM | TGI [56]: > 100 µM | TGI [54]: > 100 µM | TGI [38]: > 100 µM | TGI [39]: > 100 µM | TGI [40]: > 100 µM | TGI [57]: > 100 µM | TGI [41]: > 100 µM | TGI [58]: > 100 µM | TGI [43]: > 100 µM | TGI [45]: > 100 µM | TGI [46]: > 100 µM | TGI [47]: > 100 µM | TGI [48]: > 100 µM | TGI [49]: > 100 µM
